{"source": "patent US3932664A", "about": "“Substituted phenoxyalkyl quaternary ammonium compounds as antiarrhythemic agents” (priority 1974, dated 1976)", "test_system": "ouabain-induced ventricular tachycardia in dogs", "assay": "conversion of ouabain-induced ventricular tachycardia to normal sinus rhythm in anesthetized dogs", "assay_type": "in vivo, dog", "settings": "intravenous; for mean duration of sinus rhythm: group of three dogs", "description": "Ventricular tachycardia is produced in dogs in a method similar to the method of Lucchesi and Hardman (J. Pharmacol. Exptl. Therap., 132, 372, 1961) by the administration of ouabain. In such operations, a dog is anesthetized by the intravenous administration of pentobarbital sodium at a dosage rate of 30 milligrams per kilogram. A femoral artery is cannulated with polyethylene tubing for measurements of blood pressure. A femoral vein is similarly cannulated for administration of ouabain and administration of the test compound. Hypodermic needle electrodes are employed for recording electrocardiograms. In such operations, ouabain is administered intravenously by infusion at a constant rate via the cannulated femoral vein. The infusion rate is 35 micrograms of ouabain per kilogram of animal body weight per hour. Within 1 to 1.5 hours following the start of the infusion, a ventricular tachycardia is seen to develop.\nAfter ventricular tachycardia is observed, a test compound is administered intravenously by administration of varying amounts of a composition comprising 50 milligrams of the test compound as a sterile solution in 10 milliliters of water containing 0.9 percent sodium chloride. Each dose is administered slowly over a period of 15 to 30 seconds. The compound is administered at an initial dosage rate of 0.25 milligram of test compound per kilogram of animal body weight. Blood pressure and electrocardiogram are observed for 5 minutes after administration. When a complete conversion from the arrhythmic condition to normal sinus rhythm is not observed within the 5 minute period, a second dose of 0.50 milligram of the test compound per kilogram is administered by a similar procedure and blood pressure and heartbeat are similarly observed for 5 minutes. When complete conversion of the ventricular tachycardia to normal sinus rhythm is not observed, the dosage is increased two-fold every five minutes until complete conversion is obtained. The animal is then observed and the duration of the period of normal cardiac rhythm produced by administration of the test compound is recorded as the duration of antiarrhythmic activity. The termination of the period of normal activity is marked by the reappearance of ventricular tachycardia or fibrillation as indicated by the electrocardiogram observations. The antiarrhythmic dosage of test compound sufficient to bring about a complete conversion of the cuabain-induced tachycardia, and the duration of the period of normal cardiac activity are set out below.\nThe procedure of Example 26 is repeated, employing the compound of Example 1, [ 2-(4-amino-2,6-dibromophenoxy)-ethyl]-dimethyl(2-methylallyl)ammoniumchloride, as a test compound. In these operations two groups of three dogs each are administered the test compound intravenously at anti-arrhythmic dosage rates of 1 and 2 milligrams per kilogram after ectopic ventricular rhythms have been established by continuous infusion of cuabain."}
{"smiles": "C=C(C)C[N+](C)(C)CCOc1c(Br)cc(N)cc1Br.[Cl-]", "note": "[Example 1, [2-(4-amino-2,6-dibromophenoxy)ethyl]-dimethyl(2-methylallyl)ammonium chloride]", "values": [{"measurement": "minimal effective dose", "setting": "Canis lupus familiaris, iv, dog, dose giving complete conversion of ouabain-induced tachycardia to normal sinus rhythm, read-out: Conversion Dose", "value": 0.5, "unit": "mg/kg"}, {"measurement": "Duration (period of normal cardiac rhythm)", "setting": "dog, at conversion dose 0.5 mg/kg", "value": 15, "unit": "min"}, {"measurement": "mean duration of sinus rhythm", "setting": "1 mg/kg", "value": 12.7, "unit": "min"}, {"measurement": "mean duration of sinus rhythm", "setting": "2 mg/kg", "value": 26.5, "unit": "min"}, {"measurement": "conversion of the arrhythmias to sinus rhythm", "setting": "two groups of three dogs, 1 and 2 mg/kg", "value": "Complete conversion of the arrhythmias to sinus rhythm is observed in all the dogs"}]}
